Here are results for one substance from patent US20240238460A1, “IMPROVED PROSTATE-SPECIFIC MEMBRANE ANTIGEN TARGETING RADIOPHARMACEUTICALS AND USES THEREOF” (TELIX PHARMACEUTICALS (INNOVATIONS) PTY LTD, priority 2021, published 2024).

In assay [1] the test system is LNCaP cells. Description: Cellular uptake experiments with 99mTc-labeled ligands in LNCaP cells (with and without 2-PMPA competitor). In kind it is cell-based. As to the method:
(§1) Phosphate buffer was prepared from 890 mg Na2PO4.2H2O in 9.5 mL water for injection and 0.5 mL 2 m NaOH. After dissolution of the salts, the buffer was sterile filtered, the pH was determined using pH stripes (pH=11.5-12.0). The labeling mixture consisted of 1 μl precursor solution (1 mg/ml in MeCH/H2O 20:50; approx. 1 nmol), 20 μl phosphate buffer, 10 μl […] (TCEP; 28.7 mg/mL in phosphate buffer; 0.1 molar solution) and 4-10 μL pertechnetate in saline (0.9% NaCl; generator cluate) containing an activity of approx. 7.5 MBq. The mixture was filled to 100 μl with saline (0.9% NaCl; 59-65 μL). The pH of the reaction mixture was 8.0-8.5 (tendency towards 8.5). The mixture was heated at 98° C. for 10 minutes. After cooling to room temperature, the mixture was diluted to 1 mL by addition of saline (0.9% NaCl, ligand concentration 1 μm). An aliquot was analyzed by HPLC to determine the radiochemical yield (RCY) (method B, see example 9). Aliquots of the product mixture containing the ^99mTc-labeled ligand were further diluted to a concentration of approx. 100 nM (precursor) in PBS with and without a 10000 fold excess of 2-(Phosphonomethyl)-pentandioic acid, 2-Phosphonomethyl pentanedioic acid (2-PMPA) as competitor.
Cellular uptake experiments were conducted in analogy to previously described procedures (Lindner et al., Doi.: 10.2967/jnumed.118.210443). Briefly, LNCaP cells were seeded in 6-Well plates in RPMI medium containing 20% FBS (two day of incubation prior to the experiment) and grown to a confluency of 70-80%. For the uptake experiment, the medium was removed and the cells were incubated with 1 mL of a 1:99 dilution of the 100 nM product mixture dilutions (with and without competitor) described in Example 3. […] The cellular uptake was determined from the activity in the lysed fraction. The unspecific uptake was determined from the cellular uptake of the cells incubated with the ligand in presence of the competitor. […]

The target of assay [2] is T1, PSMA (Homo sapiens, UniProt Q04609).
T1 construct: endogenous in cells; host or cells: LNCaP cells
Description: Competitive binding experiments on LNCaP cells (competitor 2-PMPA), Ki by Cheng-Prusoff. As to conditions: 1 h, calculated from IC50 with cheng-prusoff equation, values printed in parentheses. Here is the method:
as §1
For determination of Ki, competitive binding experiments were conducted. […] The cellular uptake was determined from the activity in the lysed fraction.

T1 sequence (Q04609 whole entry): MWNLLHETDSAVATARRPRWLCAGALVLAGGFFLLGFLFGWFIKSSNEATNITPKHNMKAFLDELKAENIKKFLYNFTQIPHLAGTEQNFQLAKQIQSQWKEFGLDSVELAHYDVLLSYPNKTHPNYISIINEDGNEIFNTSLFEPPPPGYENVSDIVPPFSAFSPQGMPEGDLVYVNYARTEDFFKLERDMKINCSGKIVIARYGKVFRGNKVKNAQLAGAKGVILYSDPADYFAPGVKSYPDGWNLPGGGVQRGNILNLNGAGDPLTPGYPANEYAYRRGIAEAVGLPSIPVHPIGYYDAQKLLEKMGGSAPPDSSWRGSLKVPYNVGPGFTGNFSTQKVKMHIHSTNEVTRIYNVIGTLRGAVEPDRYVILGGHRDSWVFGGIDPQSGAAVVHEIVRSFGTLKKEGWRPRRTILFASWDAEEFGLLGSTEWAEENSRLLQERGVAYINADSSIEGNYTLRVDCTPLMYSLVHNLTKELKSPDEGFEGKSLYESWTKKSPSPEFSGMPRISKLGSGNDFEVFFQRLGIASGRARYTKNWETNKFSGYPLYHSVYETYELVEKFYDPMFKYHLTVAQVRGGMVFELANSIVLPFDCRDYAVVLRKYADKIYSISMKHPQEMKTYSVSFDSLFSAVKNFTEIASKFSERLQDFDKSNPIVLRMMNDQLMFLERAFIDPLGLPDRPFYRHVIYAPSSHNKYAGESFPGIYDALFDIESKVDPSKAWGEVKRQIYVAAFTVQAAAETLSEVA

In general, Ki refers to the equilibrium dissociation constant of an inhibitor or competing ligand from its target. Consider “^99mTc-EDDA-HYNIC-iPSMA [[^99mTc]TLX-598]”, for which the Specific uptake in assay [1] (1 h, unspecific uptake subtracted from cellular uptake) came to 18.7 ± 0.3 % AD/10^6 cells. For the same substance, in assay [1] (1 h incubation, in presence of 10000 fold excess 2-PMPA), the Unspecific uptake is on record as 1.64 ± 0.07 % AD/10^6 cells. In addition, the Uptake in assay [1] (1 h incubation, triplicate) turned out to be 20.3 ± 0.3 % AD/10^6 cells. In addition, the inhibitory constant (Ki) in assay [2] was 38 nM.
